# Experiments:
# human NPY Y5 receptor [1] = biological target: T1, human NPY Y5 receptor (Homo sapiens, UniProt Q15761); assay: Affinity for NPY Y5 receptor ([125I] peptide YY binding, CHO cell membranes); details: inhibition of specific [125I] peptide YY binding, membranes of CHO cells expressing NPY Y5 receptor
# T1 construct: expressed in transfected cells
# T1 sequence (Q15761 1-445): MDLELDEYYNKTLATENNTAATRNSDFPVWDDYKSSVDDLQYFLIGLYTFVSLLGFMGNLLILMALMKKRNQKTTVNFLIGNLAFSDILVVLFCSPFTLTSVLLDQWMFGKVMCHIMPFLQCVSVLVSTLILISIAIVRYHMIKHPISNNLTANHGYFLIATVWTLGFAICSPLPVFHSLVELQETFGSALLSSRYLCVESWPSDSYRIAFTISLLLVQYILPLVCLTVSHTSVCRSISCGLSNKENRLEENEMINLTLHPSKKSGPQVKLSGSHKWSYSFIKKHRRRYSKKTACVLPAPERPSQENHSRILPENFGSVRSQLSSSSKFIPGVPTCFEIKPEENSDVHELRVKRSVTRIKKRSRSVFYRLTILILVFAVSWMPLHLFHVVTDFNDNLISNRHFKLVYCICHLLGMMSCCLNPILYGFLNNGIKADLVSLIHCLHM
# Procedure, shortened: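 Membranes from CHO cells stably expressing human NPY Y5 receptor incubated with test compound and [125I] peptide YY (60 pM final) in HEPES-Hanks buffer with 0.1% BSA, pH 7.4, 25° C for 2 hours. Filter-bound radioactivity counted; non-specific binding with 200 nM peptide YY; IC50 against specific binding calculated.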
# human NPY Y5 receptor [2] = biological target: T1, human NPY Y5 receptor; assay: cAMP production inhibitory activity in CHO cells; type: cell-based; details: against 50 nM NPY inhibition of forskolin stimulated cAMP, CHO cells expressing human NPY Y5 receptor
# Procedure, shortened: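 CHO cells expressing human NPY Y5 receptor preincubated 20 min at 37 °C with 2.5 mM IBMX, then with compound for 5 min. Stimulated with 50 nM NPY plus 10 μM forskolin for 30 min. Reaction stopped with 1N HCl; supernatant cAMP measured by EIA.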
# NPY Y1 receptor = biological target: T2, NPY Y1 receptor (Homo sapiens, UniProt P25929); assay: Affinity for NPY Y1 receptor (membranes from SK-N-MC cells); details: membranes from Y1-expression cells (human neuroblastoma, SK-N-MC); read-out: Binding IC50 for NPY Y1 receptor
# T2 construct: membranes prepared from Y1-expression cells (human neuroblastoma, SK-N-MC); endogenous in cells; host or cells: SK-N-MC human neuroblastoma cells (membranes)
# T2 sequence (P25929 1-384): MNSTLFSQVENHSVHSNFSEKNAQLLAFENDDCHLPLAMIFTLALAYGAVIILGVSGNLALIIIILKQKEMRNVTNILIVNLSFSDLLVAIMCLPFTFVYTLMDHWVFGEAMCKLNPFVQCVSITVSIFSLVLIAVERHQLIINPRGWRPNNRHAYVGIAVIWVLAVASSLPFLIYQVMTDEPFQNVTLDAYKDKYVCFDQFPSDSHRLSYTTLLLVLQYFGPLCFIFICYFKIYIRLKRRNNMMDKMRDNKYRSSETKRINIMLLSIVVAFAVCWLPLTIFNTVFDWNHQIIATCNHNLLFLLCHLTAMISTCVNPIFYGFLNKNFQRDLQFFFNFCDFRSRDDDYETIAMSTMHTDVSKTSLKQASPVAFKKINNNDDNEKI
# Procedure: (§1) The membranes prepared from the above CHO cells expressing NPY Y5 receptor, the compound of the present invention and 30,000 cpm [^125I] peptide YY (60 pM of final concentration: Amersham) were incubated in the assay buffer (20 mM HEPES-Hanks buffer containing 0.1% bovine serum albumin, pH 7.4) at 25° C. for 2 hours, and then the mixture was filtered with a glassfilter GF/C treated with polyethyleneimine. After the glassfilter was washed with 50 mM Tris-HCl buffer (pH 7.4), the radioactivity on the filter was measured with a gamma counter. The non-specific binding was detected in the presence of 200 nM of peptide YY. The 50% inhibitory concentration of the test compound against the specific peptide YY binding (IC50 value) was calculated (Inui, A. et al. Endocrinology 131, 2090-2096 (1992)).
# (§2) Using the membranes prepared from Y1-expression cells (human neuroblastoma, SK-N-MC) and the membranes prepared from Y2-expression cells (human neuroblastoma, SMS-KAN), the experiment was carried out in a similar way as Experiment 1 to determine the affinity for NPY Y1 receptor and NPY Y2 receptor.
# NPY Y2 receptor = biological target: T3, NPY Y2 receptor (Homo sapiens, UniProt P49146); assay: Affinity for NPY Y2 receptor (membranes from SMS-KAN cells); details: membranes from Y2-expression cells (human neuroblastoma, SMS-KAN); read-out: Binding IC50 for NPY Y2 receptor
# T3 construct: membranes prepared from Y2-expression cells (human neuroblastoma, SMS-KAN); endogenous in cells; host or cells: SMS-KAN human neuroblastoma cells (membranes)
# T3 sequence (P49146 1-381): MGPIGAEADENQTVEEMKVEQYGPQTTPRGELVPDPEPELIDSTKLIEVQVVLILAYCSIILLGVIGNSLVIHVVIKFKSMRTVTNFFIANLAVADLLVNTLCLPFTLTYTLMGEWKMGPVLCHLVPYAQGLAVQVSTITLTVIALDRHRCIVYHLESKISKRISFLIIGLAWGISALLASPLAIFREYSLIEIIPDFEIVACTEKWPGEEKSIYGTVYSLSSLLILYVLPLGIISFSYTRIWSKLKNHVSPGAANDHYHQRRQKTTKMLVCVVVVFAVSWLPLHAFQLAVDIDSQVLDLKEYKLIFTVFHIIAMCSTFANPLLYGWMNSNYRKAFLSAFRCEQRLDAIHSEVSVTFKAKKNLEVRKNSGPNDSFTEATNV
# Procedure: as §1, §2
IC50 (human NPY Y5 receptor [1]),IC50 (human NPY Y5 receptor [2]),IC50 (NPY Y1 receptor),IC50 (NPY Y2 receptor),SMILES
0.001 µM,0.024 µM,≥ 100 µM,≥ 100 µM,CC(C)S(=O)(=O)NC1CCC(C(=O)Nc2ccc(C(F)(F)F)cc2)CC1 (stereo not drawn) [Ia-140]
0.0046 µM,0.016 µM,≥ 100 µM,≥ 100 µM,CC(C)(C)S(=O)(=O)NC1CCC(C(=O)Nc2ccc(C(F)(F)F)cn2)CC1 (stereo not drawn) [Ia-178]

# Continued, compound first:
SMILES,IC50 (human NPY Y5 receptor [1]),IC50 (human NPY Y5 receptor [2]),IC50 (NPY Y1 receptor),IC50 (NPY Y2 receptor)
CC(C)(C)S(=O)(=O)Nc1ccc(C(=O)Nc2ccc3ncsc3c2)cc1 [Ia-126],0.0023 µM,0.058 µM,≥ 100 µM,≥ 100 µM
CC(C)(C)S(=O)(=O)Nc1ccc(C(=O)Nc2ccc(N3CC=CC3)cc2)cc1 [Ia-139],0.0019 µM,0.025 µM,≥ 100 µM,≥ 100 µM
CC(C)S(=O)(=O)NC1CCC(C(=O)Nc2cccc(OC3CCCC3)c2)CC1 (stereo not drawn) [Ia-199],0.00011 µM,0.0016 µM,≥ 100 µM,≥ 100 µM
CC(C)(C)S(=O)(=O)NC1CCC(C(=O)Nc2ccc(OC3CCOCC3)cc2)CC1 (stereo not drawn) [Ia-200],0.0014 µM,0.018 µM,≥ 100 µM,≥ 100 µM
